The values below come from patent US20160271248A1, “CXCR4 UP- AND DOWN-REGULATION FOR TREATMENT OF DISEASES OR DISORDERS” (priority 2013, published 2016).

For experiment [1], the system named is layer II/III pyramidal neurons of the prefrontal cortex. The experiment is described as follows: In vivo dendritic spine analysis (Golgi stain, Neurolucida). The arrangement: species or system rat.
Experiment [2] has as its system layer 2/3 pyramidal neurons in the prefrontal cortex. In kind it is cell-based, rat.
In the next experiment the test system is Rat cortical neurons. The format is cell-based. The following applies: for effect on CXCL12-induced increase of spine density: AMD3100 100 ng/ml 20 min or PTx 100 ng/ml 18 hrs before CXCL12 (20 nM, 3 hours). The method, then:
(§1) Rat cortical neurons were cultured in the presence of a glial feeder layer, using the bilaminar cell culture model. Due to the presence of glia this culture system largely preserves the in vivo mechanisms of neuronal growth and differentiation, but also allows for direct studies on neurons, which were separated from glia at the time of analysis. Selected experiments were performed using glia-free neuronal cultures, as noted, using previously described protocols (Sengupta et al., 2009, J. Neurosci. 29:2534-2544). Neurons were transfected at the time of plating by Nucleofection (Amaxa), or after 8 days in culture by lipofectamine (Invitrogen). All experiments were conducted at 21 DIV, unless otherwise noted. HDAC4 and control (scrambled) siRNA were obtained from Ambion (s170677 and 4390843), and FHC/scrambled shRNA from GenScript (custom order; shRNA vector also expressed GFP).
For in vitro experiments, neurons were cultured in the presence of glia for 21 days, then fixed and stained for MAP2 (Millipore, 1:1000; detected with Goat antirabbit Alexa 568, Invitrogen 1:250) and counterstained with phalloidin (Invitrogen, 25 μg/mL). For FHC shRNA experiments neurons were identified and analyzed using incorporated GFP expression. Images were acquired with a Zeiss LSM5 laser scanning confocal microscope, using a 63× objective. Dendritic spines were defined as phalloidin- or GFP-positive protrusions clearly connected to the dendrite by a thin shaft. For each neuron 3-4 segments totaling at least […] in length were added to measure spine density, and each neuron was represented as a single data point. Each experiment included 3-4 coverslips from each of 2 or more separate preparations. For in vivo experiments, dendritic spines were visualized using a Golgi stain kit, following instructions from the manufacturer (FD NeuroTechnologies). Brains were rapidly removed, rinsed in H2O, and incubated in the Golgi stain for 2 weeks. The tissue was then cryoprotected in sucrose at 4° C. for 7 days, and frozen in isopentane. Brains were sectioned by cryostat at a thickness of 180 μm, and mounted on gelatin-coated microscope slides. Sections were allowed to dry overnight, and a signal intensification step performed before dehydrating, clearing in xylene, and coversliping with Permount (Fisher Scientific). Spine analysis was performed using Neurolucida software equipped with a 100× objective (FIG. 7A). Pyramidal neurons in layer 2-3 of prefrontal cortex were identified and reconstructed in their entirety, and total spine density for each neuron was reported as a single data point. 3 neurons were analyzed from each brain, and 4-5 brains used for each experimental group.

The next experiment relates to HOS cells. The experiment is described as follows: Calcein assay (labile iron pool). The following applies: DFO 100 µM, six hours; empty vector HOS cells. The format is cell-based, human. The method, then: HOS cells transfected with either empty vector (EV), wild type FHC (WT-FHC) or FHC 222 mutant (Mut-FHC) were plated in 96-well plates at 20,000 cells per well. After 24 hours of serum starvation, vehicle or the iron chelator DFO ([…]) were added, respectively, to the untreated EV wells (Control) and to the positive control wells (DFO). Six hours later all cells were washed with PBS, and loaded with the iron-binding dye calcein (200 μg/mL) for 20 minutes. Cells were then washed again in PBS, and calcein fluorescence measured (excitation 485 nm, emission 535 nm), as a measure of the labile iron pool.
Human osteosarcoma cells expressing high levels of CXCR4 (HOS-X4) were transfected with either of these FHC plasmids and selected to generate stable cell lines. First, in order to confirm the differential effects of these proteins on iron sequestration, free intracellular iron levels were compared using the fluorescent probe calcein. Calcein is delivered as a calcein-AM ester, which passes across the plasma membrane into cells and is cleaved by cytosolic esterases to produce membrane-impermeable calcein. The fluorescence of this trapped calcein is quenched following chelation with labile iron, and therefore the degree of quenching is a commonly used estimation of free intracellular iron levels.

The test system of another experiment is pCXCR4-Ser339. In words: Multispectral imaging of pCXCR4 optical density within MAP2+ neurons, non-human primate. In kind it is in vivo, rhesus macaque. The following applies: morphine treated macaques; frontal cortex.
Another experiment has as its system CXCR4. In words: Multispectral imaging of total CXCR4 optical density within MAP2+ neurons, non-human primate. In kind it is in vivo, rhesus macaque. The following applies: morphine treated macaques; frontal cortex.
For experiment [3], the system named is FHC. The experiment is described as follows: Multispectral imaging of FHC optical density within MAP2+ neurons, non-human primate. The following applies: morphine 3 then 5 mg/kg 3 times daily, 90-110 days; frontal cortex. In kind it is in vivo, rhesus macaque.
Experiment [4] has as its system FHC. The experiment is described as follows: Neuronal FHC protein levels by Western blot in cultured cortical neurons. The format is cell-based, rat. The following applies: for FHC protein levels: neurons in the absence of glia, 0.5 to 30 ng/mL, vs vehicle. The method, then: as §1
(§2) Protease and phosphatases inhibitors were added to both buffers.
Rat cortical neurons were cultured in serum-free media in the presence of a glial feeder layer (Shimizu, et al., 2011, J. Vis. Exp. 57). This culture system largely preserves the in vivo environment, due to the presence of glia; however, it still enables direct investigation of neurons that can be separated by the glia before experiments. Selected studies were also performed in neurons grown in the absence of glia for the entire culture period, as indicated (Sengupta, et al., 2009, J. Neurosci. 29(8):2534-44). All experiments were conducted between 8-13 days in vitro (DIV).
Total protein extracts were obtained using standard protocols. […] The following antibodies were used: anti-FHC (3998, Cell Signaling Technology, 1:1,000) and anti-β-actin (A2066, Sigma-Aldrich, 1:5,000).

The next experiment deals with HDAC4. The experiment is described as follows: Nuclear HDAC4 levels by immunocytochemistry and western blot. The format is cell-based, rat. The following applies: pure neuronal culture; CXCL12 20 nM, 30 min. The procedure: as §2
Neurons were fixed in 4% paraformaldehyde, and stained with MAP2 (Millipore, 1:1000) and HDAC4 (Epigentek, 1:150), detected with cy2- and cy3-conjugated secondary antibodies. Cell nuclei were visualized with Hoechst (Invitrogen, 1:2000), and images were acquired with a Zeiss LSM5 laser scanning confocal microscope (Imager.Z1m), mounting 10, 20, 40, and 63× objectives.

Experiment [5] relates to FHC. The experiment is described as follows: FHC transcript levels in neurons. In kind it is cell-based, rat. The following applies: neurons in the absence of glia.
Setting [6] is: AMD3100 1 μg ICV, 6 hours, CXCL12 20 nM, 3 hours slice incubation.
[7] abbreviates: held at −70 mV, picrotoxin, AMD3100 ICV or CXCL12 20 nM 3 hrs.

Where two headings read alike, the source gives them in different places.

Regarding `c1cc(CN2CCCNCCNCCCNCC2)ccc1CN1CCCNCCNCCCNCC1` [AMD3100, 1,1′-[1,4-phenylenebis (methylene)]bis[1,4,8,11-tetraazacyclotetradecane], reference compound], in [1] (osmotic pump into left lateral ventricle, 0.75 μg/hour for 4 days), the dendritic spine density result is on record as “similarly able to decrease dendritic spine densities”. Further, the dendritic spine density entry in experiment [1] (single 1 μg ICV injection, 3-week-old rats, 6 hours post-injection) is “significantly decreased spine densities”. In addition, in [2], the 20-80% rise time is recorded as 0.31 ± 0.02 ms, the after hyperpolarization is −12.8 ± 1.5 mV, the mEPSC amplitude amounted to 16.55±0.55 pA and the mEPSC frequency came to 2.27±0.33 Hz. Further, in [2], the peak spike amplitude is on record as 72.6 ± 5.3 mV, the resting membrane potential is −76.9 ± 2.3 mV, the spike half-width turned out to be 1.3 ± 0.12 ms and the “spike number generation in response to varying step currents” value is “no drug effect on spike number generation”. In experiment [2], the spike threshold is on record as −38.4 ± 3.0 mV. The compound further registered an input resistance in [2] (setting [6]) of 138.3 ± 9.5 M′Ω. For the same compound, in experiment [2] (setting [7]), the sEPSC amplitude came out at 16.79±0.80 pA and the sEPSC frequency is 3.84±0.65 Hz. Moreover, the “effect on CXCL12-induced increase of spine density” value in the experiment on Rat cortical neurons is “blocked”.
`CC(=O)N(O)CCCCCNC(=O)CCC(=O)N(O)CCCCCNC(=O)CCC(=O)N(O)CCCCCN` [DFO, desferrioxamine]: the calcein fluorescence entry with HOS cells is on record as “increased”.
With `CN1CC[C@]23c4c5ccc(O)c4O[C@H]2[C@@H](O)C=C[C@H]3[C@H]1C5` [morphine], the “neuronal pCXCR4 levels” value in the experiment on pCXCR4-Ser339 is “significant reduction in pCXCR4 levels”. Besides, in the experiment with CXCR4, the “total neuronal CXCR4 levels” value is “unchanged”. Besides, the “neuronal FHC (OD within MAP2+ neurons)” value with FHC [3] is recorded as “significantly elevated”. The FHC levels result in the experiment with FHC [4] (cultured rat cortical neurons, morphine 1 μm, 24 hours) is “significantly increases FHC levels”. For the same compound, the “ability of morphine to regulate spines in FHC-deficient neurons” value with Rat cortical neurons (FHC-specific shRNA vs scrambled) is “blocked”. In addition, the “number of dendritic spines” value in the experiment on Rat cortical neurons (morphine 1 μm, 24 hours, 21 days culture) is listed as “significant decrease in the number of dendritic spines”.
On to “CXCL12: recombinant chemokine CXCL12 from Peprotech, endogenous CXCR4 ligand”, for which the “nuclear HDAC4 levels” value with HDAC4 is on record as “increased nuclear HDAC4 levels”. Also, in experiment [2], the mEPSC amplitude came to 25.25±1.02 pA, the mEPSC frequency is given as 1.43±0.25 Hz, the resting membrane potential is −76.1 ± 2.3 mV and the sEPSC amplitude stood at 25.32±0.43 pA. Besides, the sEPSC frequency in experiment [2] was 1.85±0.41 Hz. In experiment [2] (setting [6]), this compound returned a 20-80% rise time of 0.29 ± 0.01 ms, an after hyperpolarization of −12.0 ± 0.9 mV, an input resistance of 121.8 ± 13.2 M′Ω and a peak spike amplitude of 74.0 ± 2.8 mV. In [2] (setting [6]), the spike half-width turned out to be 1.2 ± 0.07 ms and the spike threshold is listed as −42.9 ± 2.3 mV. Besides, in experiment [2] (current clamp, AMD3100 ICV or CXCL12 ex vivo vs vehicle), the “spike number generation in response to varying step currents” value is given as “no drug effect on spike number generation”. The dendritic spine density result in the experiment with Rat cortical neurons (21 days culture with glial feeder layer, CXCL12 20 nM, 3 hours) is recorded as “moderate but significant increase in spine density”. In the experiment with Rat cortical neurons (HDAC4-specific siRNA, pure neuronal population), the “effects of CXCL12 on spine density in HDAC4-deficient neurons” value is “completely prevented”. In addition, the dendritic spines result in the experiment on Rat cortical neurons (pure neuronal population, 21 days, 20 nM CXCL12, multiple time points) is on record as “time-dependent increase in dendritic spines”.
With “IL-1β: Recombinant IL-1β, proinflammatory cytokine, R&D Systems”, in the experiment with FHC [5], the FHC transcript levels entry is on record as “did not affect levels of FHC mRNA”. Further, the FHC protein levels entry in the experiment on FHC [4] was “significant increase of FHC protein levels”.
For the compound TNF-α, the FHC transcript levels result in the experiment with FHC [5] is “increased”. Moreover, the FHC protein levels entry in the experiment on FHC [4] is reported as “significant increase of FHC protein levels”.
In the case of pertussis toxin, the “effect on CXCL12-induced increase of spine density” value in the experiment on Rat cortical neurons was “blocked”.
